tested on: tubulin; test: inhibition of the polymerization of tubulin into microtubules, followed by changes in optical density (Weisenberg method); assay type: biochemical; conditions: read-out: IC50, concentration of compound which brings about a 50% inhibition of the polymerization of tubulin into microtubules
Excerpt: This property was confirmed by measuring the inhibition of the polymerization of tubulin into microtubules in the presence of the compounds of the invention, according to the method described by R. C. Weisenberg (Science 177, 1196-7, 1972). The results are expressed in terms of IC50, which corresponds to the concentration of compound which brings about a 50% inhibition of the polymerization. This phenomenon is readily monitored and quantified by means of the changes in optical density.

Compound | IC50 [nM]
CC[C@]12C=CCN3CC[C@@]4(c5cc([C@@]6(C(=O)OC)C[C@@H]7CC(C(C)Cl)CN(CCc8c6[nH]c6ccccc86)C7)c(OC)cc5N(C)[C@H]4[C@@](O)(C(=O)OC)[C@@H]1OC(C)=O)[C@@H]32 (stereo partly drawn) [Example 1, 20'-chloro-4'-deoxyvinblastine] | 1990
CC[C@]12C=CCN3CC[C@@]4(c5cc([C@@]6(C(=O)OC)C[C@H]7CN(CCc8c6[nH]c6ccccc86)CC(F)(C(C)Cl)C7)c(OC)cc5N(C)[C@H]4[C@@](O)(C(=O)OC)[C@@H]1OC(C)=O)[C@@H]32 (stereo partly drawn) [Example 3, 20'-chloro-4'-deoxy-4'-fluorovinblastine] | 1540
CCC1=C[C@@H]2CN(C1)Cc1c([nH]c3ccccc13)[C@@](C(=O)OC)(c1cc3c(cc1OC)N(C)[C@H]1[C@@](O)(C(=O)OC)[C@H](OC(C)=O)[C@]4(CC)C=CCN5CC[C@]31[C@@H]54)C2 [Vinorelbine, reference compound] | 1700

Reference: US6127377A, “Vinca alkaloid antimitotic halogenated derivatives” (Adir et Compagnie, priority 1997, dated 2000)
